Measured values published in patent US9000162B2, “5,8-difluoro-4-(2-(4-(heteroaryloxy)-phenyl)ethylamino)quinazolines and their use as agrochemicals” (Dow AgroSciences LLC, priority 2008, dated 2015).

Key:
Assay type in all cases: in vivo
[1] = system: Pseudoperonospora cubensis (PSPECU); experiment: Cucumber downy mildew foliar protectant test; conditions: 200 ppm foliar, inoculated one day after treatment, read-out: Activity against fungal diseases PSPECU
Experimental: The plants were inoculated with the fungus one day after treatment. ***=80-100% control; **=50-79% control; *=0-49% control. It will be understood by those in the art that the efficacy of the compounds against the foregoing fungi establishes the general utility of the compounds as fungicides. The activity of the compounds as effective fungicides was determined by applying the compounds to plants and observing control of fungal disease. […] All plants were inoculated with spores of the fungus the day after treatment, then incubated in an environment conducive to disease development. Disease severity was evaluated 4 to 25 days later, depending on the speed of disease development. The following experiments were performed in the laboratory to determine the fungicidal efficacy of the compounds of the invention. Cucumber Downy Mildew (Causal Agent Pseudoperonospora cubensis; Bayer Code […]): Cucumber plants (variety “Bush Champion' or 'Bush Pickle Hybrid') were grown from seed in a soil-less peat-based potting mixture (Metromix) until the first true leaf was 20-80% expanded. Each pot contained 1 seedling. These plants were sprayed until wet with the formulated test compound. On the following day, the leaves were inoculated with an aqueous suspension of downy mildew sporangia and the plants were kept in high humidity for one day to permit sporangia to germinate and infect the leaf. The plants were then incubated in a growth chamber until disease developed on untreated control plants. Table 1 presents the activity of typical compounds of the present invention when evaluated in these experiments. The effectiveness of the test compounds at controlling disease when sprayed on leaves was determined by assessing the severity of disease on treated plants, then converting the severity to percent control based on the level of disease on untreated, inoculated plants.

[2] = system: Puccinia recondita tritici (PUCCRT); experiment: Leaf rust of wheat foliar protectant test; conditions: read-out: Activity against fungal diseases PUCCRT; for pest or weed control at 200 ppm: 200 ppm foliar, inoculated one day after treatment; for pest or weed control at 3 ppm: foliar, Tested at 3 ppm (footnote a)
Experimental: (§1) The plants were inoculated with the fungus one day after treatment. ***=80-100% control; **=50-79% control; *=0-49% control. It will be understood by those in the art that the efficacy of the compounds against the foregoing fungi establishes the general utility of the compounds as fungicides. The activity of the compounds as effective fungicides was determined by applying the compounds to plants and observing control of fungal disease. […] All plants were inoculated with spores of the fungus the day after treatment, then incubated in an environment conducive to disease development. Disease severity was evaluated 4 to 25 days later, depending on the speed of disease development. The following experiments were performed in the laboratory to determine the fungicidal efficacy of the compounds of the invention. […] Each pot contained 3-8 seedlings. These plants were sprayed until wet with the formulated test compounds. On the following day, the leaves were inoculated with an aqueous spore suspension of Puccinia recondita tritici and the plants were kept in high humidity overnight to permit spores to germinate and infect the leaf. The plants were then transferred to a greenhouse until disease developed on untreated control plants. Table 1 presents the activity of typical compounds of the present invention when evaluated in these experiments. The effectiveness of the test compounds at controlling disease when sprayed on leaves was determined by assessing the severity of disease on treated plants, then converting the severity to percent control based on the level of disease on untreated, inoculated plants.

[3] = system: Magnaporthe grisea = Pyricularia oryzae (PYRIOR); experiment: whole plant or invertebrate; conditions: foliar, read-out: Activity against fungal diseases PYRIOR
[4] = system: Septoria tritici (SEPTTR); experiment: Septoria blotch of wheat foliar protectant test; conditions: Zymoseptoria tritici, read-out: Activity against fungal diseases SEPTTR; for pest or weed control at 200 ppm: 200 ppm foliar, inoculated one day after treatment; for pest or weed control at 25 ppm: foliar, Tested at 25 ppm (footnote b)
Experimental: as §1, with “3-10” for “3-8”, “compound.” for “compounds.”, “Septoria” for “Puccinia recondita”, “(one day in a dark dew chamber followed by three days in a lighted dew chamber)” for “overnight”

SMILES | pest or weed control at 200 ppm [1] | pest or weed control at 200 ppm [2] | pest or weed control at 200 ppm [3] | pest or weed control at 200 ppm [4] | pest or weed control at 3 ppm [2] | pest or weed control at 25 ppm [4]
COc1cc(CCNc2ncnc3c(F)ccc(F)c23)ccc1Oc1c(F)cnc(C(F)(F)F)c1F [Compound 50] | 80 to 100% | 80 to 100% | 80 to 100% | 80 to 100% | – | –
COc1ccc(CCNc2ncnc3c(F)ccc(F)c23)cc1Cl [Compound 85] | 80 to 100% | 0 to 49% | 50 to 79% | 0 to 49% | – | –
Fc1ccc(F)c2c(NCCc3ccc(Oc4cnccc4C(F)(F)F)c(Cl)c3)ncnc12 [Compound 91] | 80 to 100% | 80 to 100% | 80 to 100% | 80 to 100% | – | –
Oc1ccc(CCNc2ncnc3c(F)ccc(F)c23)cc1Br [Compound 38] | 0 to 49% | 0 to 49% | 0 to 49% | – | – | –
CC(CNc1ncnc2c(F)ccc(F)c12)c1ccc(Oc2cc(C(F)(F)F)ncn2)cc1 (stereo not shown) [Compound 142] | – | – | – | – | 80 to 100% | 80 to 100%
CC(CNc1ncnc2c(F)ccc(F)c12)c1ccc(Oc2ncc(C(F)(F)F)cc2F)cc1 (stereo not shown) [Compound 145] | – | – | – | – | 0 to 49% | 50 to 79%
N#Cc1ccnc(Oc2ccc(CCNc3ncnc4c(F)ccc(F)c34)cc2)c1 [Compound 2] | 80 to 100% | 80 to 100% | 80 to 100% | 0 to 49% | – | –
COc1ccc(CCNc2ncnc3c(F)ccc(F)c23)c(C)c1C [Compound 20] | 80 to 100% | 80 to 100% | 50 to 79% | 50 to 79% | – | –
Oc1cccc(CCNc2ncnc3c(F)ccc(F)c23)c1 [Compound 35] | 80 to 100% | 50 to 79% | – | – | – | –
CCOc1cc(CCNc2ncnc3c(F)ccc(F)c23)ccc1Oc1cc(C(F)(F)F)ccn1 [Compound 60] | 80 to 100% | 80 to 100% | 80 to 100% | 80 to 100% | – | –
CC(Cc1ccc(Oc2ncc(C(F)(F)F)cc2F)cc1)Nc1ncnc2c(F)ccc(F)c12 (stereo not shown) [Compound 137] | – | – | – | – | 50 to 79% | 80 to 100%
CC(Nc1ncnc2c(F)ccc(F)c12)c1ccccc1 (stereo not shown) [Compound 119] | 80 to 100% | 80 to 100% | 80 to 100% | 80 to 100% | – | –
COc1cc(C(F)(F)F)cc(Oc2ccc(CCNc3ncnc4c(F)ccc(F)c34)cc2C)n1 [Compound 29] | 80 to 100% | 80 to 100% | 50 to 79% | 80 to 100% | – | –
CC(CNc1ncnc2c(F)ccc(F)c12)c1ccc(Oc2cc(C(F)(F)F)ccn2)cc1 (stereo not shown) [Compound 144] | – | – | – | – | 80 to 100% | 80 to 100%
Fc1cc(F)c2ncnc(NCCc3ccc(Oc4cc(C(F)(F)F)ccn4)c(Cl)c3)c2c1F [Compound 92] | – | 50 to 79% | 80 to 100% | 50 to 79% | – | –
COc1cc(CCNc2ncnc3c(F)cc(F)c(F)c23)ccc1O [Compound 33] | – | – | – | – | 0 to 49% | 0 to 49%
COc1ccc2c(c1)CC(Nc1ncnc3c(F)ccc(F)c13)C2 (stereo not shown) [Compound 105] | – | 80 to 100% | 80 to 100% | 0 to 49% | – | –
CC(Cc1ccc(Oc2ccc(C(F)(F)F)cn2)cc1)Nc1ncnc2c(F)ccc(F)c12 (stereo not shown) [Compound 136] | – | – | – | – | 80 to 100% | 80 to 100%

SMILES | pest or weed control at 200 ppm [1] | pest or weed control at 200 ppm [2] | pest or weed control at 200 ppm [3] | pest or weed control at 200 ppm [4] | pest or weed control at 3 ppm [2] | pest or weed control at 25 ppm [4]
CC(CNc1ncnc2c(F)ccc(F)c12)c1ccc(Oc2ccc(C(F)(F)F)cn2)cc1 (stereo not shown) [Compound 143] | – | – | – | – | 0 to 49% | 80 to 100%
CC(Cc1ccc(Oc2cc(C(F)(F)F)ncn2)cc1)Nc1ncnc2c(F)ccc(F)c12 (stereo not shown) [Compound 135] | – | – | – | – | 80 to 100% | 80 to 100%
COc1ccc(C(C)CNc2ncnc3c(F)ccc(F)c23)cc1 (stereo not shown) [Compound 139] | – | – | – | – | 0 to 49% | 0 to 49%
Fc1ccc(F)c2c(NCCc3ccc(Oc4cc(Cl)nc(C(F)(F)F)n4)cc3)ncnc12 [Compound 103] | – | 80 to 100% | 80 to 100% | 0 to 49% | – | –
COc1ccc(C(C)Nc2ncnc3c(F)ccc(F)c23)cc1 (stereo not shown) [Compound 120] | – | 80 to 100% | – | 0 to 49% | – | –
Cc1ccnc(Oc2ccc(CCNc3ncnc4c(F)ccc(F)c34)cc2)c1 [Compound 128] | – | – | – | – | 80 to 100% | 50 to 79%
CC(Cc1ccc(Oc2cnccc2C(F)(F)F)cc1)Nc1ncnc2c(F)ccc(F)c12 (stereo not shown) [Compound 138] | – | – | – | – | 80 to 100% | 80 to 100%
CC(Cc1ccc(Oc2cc(C(F)(F)F)ccn2)cc1)Nc1ncnc2c(F)ccc(F)c12 (stereo not shown) [Compound 134] | – | – | – | – | 80 to 100% | 80 to 100%
COc1cc(CCNc2ncnc3c(F)ccc(F)c23)ccc1Oc1cc(Cl)nc(C(F)(F)F)n1 [Compound 104] | – | 80 to 100% | 80 to 100% | 0 to 49% | – | –
Fc1ccc(F)c2c(OCCc3ccc(OCC(F)(F)F)cc3)ncnc12 [Compound 121] | – | – | – | – | 0 to 49% | 50 to 79%
CC(CNc1ncnc2c(F)ccc(F)c12)c1ccc(Oc2cnccc2C(F)(F)F)cc1 (stereo not shown) [Compound 141] | – | – | – | – | 80 to 100% | 80 to 100%
Fc1ccc(F)c2c(NCCc3ccc(Oc4cncc(C(F)(F)F)c4)cc3)ncnc12 [Compound 123] | – | – | – | – | 80 to 100% | 80 to 100%
Fc1ccc(F)c2c(NCCc3ccc(Oc4cc(C(F)(F)F)ncn4)cc3)ncnc12 [Compound 109] | – | 80 to 100% | 80 to 100% | 80 to 100% | – | –
COC(=O)c1cnc(Oc2ccc(CCNc3ncnc4c(F)ccc(F)c34)cc2C)cc1C(F)(F)F [Compound 36] | 80 to 100% | 80 to 100% | – | – | – | 0 to 49%
Cc1cc(CCNc2ncnc3c(F)ccc(F)c23)ccc1Oc1nc(C(F)(F)F)nc(F)c1F [Compound 102] | – | 80 to 100% | 80 to 100% | 0 to 49% | – | –
Fc1ccc(F)c2c(NCCc3ccc(Oc4ccnc(C(F)(F)F)c4)cc3)ncnc12 [Compound 71] | – | – | – | – | 80 to 100% | 80 to 100%
Fc1ccc(F)c2c(NCCc3ccc(Oc4ncccc4C(F)(F)F)cc3)ncnc12 [Compound 13] | – | – | – | – | 80 to 100% | 80 to 100%
Cc1cc(C(F)(F)F)cc(Oc2cc(C)c(CCNc3ncnc4c(F)ccc(F)c34)cc2C)n1 [Compound 22] | – | 80 to 100% | 50 to 79% | – | – | 80 to 100%
